Laboratory results taken from publication PMC8810880, “Comprehensive characterization and molecular insights into the salt tolerance of a Cu, Zn-superoxide dismutase from an Indian Mangrove, Avicennia marina” (Scientific Reports, 2022).

Target: T1, Am_SOD (recombinant Cu, Zn-superoxide dismutase) (Avicennia marina, UniProt Q9AXH2)
T1 construct: full-length 459 bp ORF in pET22b+ (NdeI/XhoI), 6xHis tag (printed as N-terminal); homodimer ~32-33 kDa, monomer ~16 kDa; no signal peptide found
T1 sequence (Q9AXH2 1-152): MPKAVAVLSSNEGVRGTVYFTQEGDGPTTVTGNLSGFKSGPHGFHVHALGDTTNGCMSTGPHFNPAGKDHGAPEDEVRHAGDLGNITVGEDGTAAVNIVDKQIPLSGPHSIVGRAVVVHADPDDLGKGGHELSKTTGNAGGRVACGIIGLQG
Test: riboflavin-NBT SOD inhibition assay, A560
Type: biochemical
Excerpt: riboflavin-NBT SOD inhibition assay, A560 on Am_SOD (recombinant Cu, Zn-superoxide dismutase) | inhibited in a dose-dependent manner by sodium diethyldithiocarbamate trihydrate, and the IC50 was obtained at […]

CCN(CC)C(=S)S [DDC, sodium diethyldithiocarbamate trihydrate]
IC50: 1500 µM
